Measurements as given in PubChem BioAssay AID1224918.

Test system: MCF7 antiproliferative assay
Test: PubChem AID 1224918

Question: `COc1cc(-c2nn(CCN3CCC(N(C)C)CC3)c3ncnc(N)c23)ccc1NC(=O)OC(C)(C)C` was tested. Which EC50 did it give?
Answer: The EC50 was 70 nM.
